Reference: patent US20240067651A1 (Biohaven Therapeutics Ltd., priority 2019, published 2024)

Experiments:
[1] = Stability in Simulated Gastric Fluid (SGF); format: in vitro ADME; design: key: % parent compound remaining relative to 0-minute sample
Description: (§1) Simulated gastric fluid (SGF) and Simulated intestinal fluid (SIF) stability are in vitro metrics indicating the ability of a compound to pass through the gastrointestinal tract […] or completely digested. An undigested or nearly undigested compound will usually survive gut transit long enough to be absorbed into the systemic circulation. Greater than 50% remaining intact compound at 1 hour indicates a relatively stable molecule that will likely be absorbed in the gut.
(§2) For each test compound, samples at a final concentration of 2 μg/mL are prepared in respective blank simulated gastric fluid with pepsin (pH 1.2) and simulated intestinal fluid with pancreatin (pH 6.8). All samples are incubated at 37° C. on a 150-rpm orbital shaker, and an aliquot is removed at predetermined time points (0 to 60 minutes). Samples are precipitated with three volumes of acetonitrile containing propranolol as internal standard, and centrifuged for 10 min at 2,000 g before LC-MS/MS analysis of the supernatant solutions. Percent parent compound remaining is determined relative to 0-minute incubation samples. If a sufficient number of time points are available, the degradation half-life is calculated based on the natural log of % compound remaining vs. time plot.

[2] = Stability in Simulated Intestinal Fluid (SIF); format: in vitro ADME; design: key: % parent compound remaining relative to 0-minute sample
Description: as §1, §2

Plasma Stability = format: in vitro ADME, human
Description: Plasma stability estimates the ability of a compound to remain intact in the blood. For prodrugs that are intended to be hydrolyzed by plasma enzymes a certain level of instability in plasma indicates the compound is probably breaking down to the parent drug. A stability range of 25-75% remaining parent compound after 1 hour in plasma indicates the compound is likely breaking down to the parent drug molecule and a patient will be exposed to this parent molecule.
Assessment of plasma stability was carried out by individual incubations of drug candidates in fresh human plasma at a concentration of 1 μM for 1 hour at 37° C. After which, the samples were de-proteinized by addition of 2 volumes of acetonitrile containing 0.1% formic acid and internal standard, vortex mixed for 2 minutes and centrifuged at 4,000 rpm for 10 minutes to pellet precipitated protein. The resulting supernatant containing the drug candidates was diluted 5-fold with water containing 0.1% formic acid and submitted to LCMS/MS analysis. All determinations were done in triplicate. Plasma stability was expressed as percent of control remaining.
See Pelletier et al. ACS Med. Chem. Lett. 2018, 9, 752-756.

[3] = % remaining at 1 h, SGF with pepsin pH 1.2, 2 μg/mL, 37° C.
[4] = % remaining at 1 h, SIF with pancreatin pH 6.8, 2 μg/mL, 37° C.
[5] = % remaining at 1 h, human plasma, 1 μM, 37° C.
[6] = bare number, unit or time not given, the 15th table Examples 204-207
[7] = % remaining at 1 h in human plasma, the 15th table
[8] = bare number, unit or time not given
[9] = simulated gastric fluid, at 1 h
[10] = simulated intestinal fluid, at 1 h
[11] = simulated gastric fluid, remaining at 1 h
[12] = simulated intestinal fluid, remaining at 1 h

## CC(C)OCCn1c(=S)n2c(=O)c3c1ccn3COC(=O)CCC(=O)N1CCC(CC1)C(=O)OC2 [Example 140, 19-[2-(propan-2-yloxy)ethyl]-20-sulfanylidene-3,13-dioxa-1,8,15,19-tetraazatetra-cyclo[13.5.2.2^{5,8}.0^{18,22}]tetra-cosa-16,18(22)-diene-4,9,12,21-tetrone]
[1]; [3]
  SGF: 99% remaining
[2]; [4]
  SIF: 79% remaining
Plasma Stability; [5]
  human Plasma stability: 10% remaining

## CC(C)OCCn1c(SCOC(=O)Oc2ccccc2)nc(=O)c2[nH]ccc21 [Example 205]
[1]; [6]
  SGF: 61
[2]; [6]
  SIF: 10
Plasma Stability; [7]
  human Plasma stability: 2% remaining

## CC(C)OCCn1c(=S)[nH]c(=O)c2c1ccn2COC(=O)CCCCOC(=O)[C@H](N)C(C)C.O=C(O)C(F)(F)F [Example 338, trifluoroacetic acid {4-oxo-1-[2-(propan-2-yloxy)ethyl]-2-sulfanylidene-1H,2H,3H,4H,5H-pyrrolo[3,2-d]pyrimidin-5-yl}methyl 5-{[(2R)-2-amino-3-methylbutanoyl]oxy}pentanoate]
[1]; [8]
  SGF: 99
[2]; [8]
  SIF: 3
Plasma Stability; % remaining @ 1 h
  human Plasma stability: 4% remaining

## CCCCCCCOC(=O)OCSc1nc(=O)c2c(ccn2COC(=O)OCCCCCCC)n1CCOC(C)C [Example 220]
[1]; % remaining at 1 h in simulated gastric fluid, the 17th table
  SGF: 77% remaining
[2]; % remaining at 1 h in simulated intestinal fluid, the 17th table
  SIF: 5% remaining
Plasma Stability; % remaining at 1 h in human plasma, the 17th table
  human Plasma stability: 55% remaining

## CC(C)OCCn1c(SCOC(=O)[C@@H](N)Cc2ccccc2)nc(=O)c2[nH]ccc21.O=C(O)C(F)(F)F [Example 310, trifluoroacetic acid ({4-oxo-1-[2-(propan-2-yloxy)ethyl]-1H,4H,5H-pyrrolo[3,2-d]pyrimidin-2-yl}sulfanyl)methyl (2S)-2-amino-3-phenylpropanoate]
[1]; % remaining @ 1 h
  SGF: 99% @ 1 h
[2]; % remaining @ 1 h
  SIF: 32% @ 1 h
Plasma Stability; % remaining @ 1 h
  human Plasma stability: 4% @ 1 h

## CC(C)OCCn1c(=S)[nH]c(=O)c2c1ccn2S(=O)(=O)c1ccccc1 [Example 78, 5-(benzenesulfonyl)-1-[2-(propan-2-yloxy)ethyl]-2-sulfanylidene-1H,2H,3H,4H,5H-pyrrolo[3,2-d]pyrimidin-4-one]
[1]; [3]
  SGF: 100%
[2]; [4]
  SIF: 80%
Plasma Stability; [5]
  human Plasma stability: 96%

## Cc1cccc(N(C)C(=O)OCn2ccc3c2c(=O)[nH]c(=S)n3CCOC(C)C)c1 [Example 252]
[1]; [9]
  SGF: 100% remaining
[2]; [10]
  SIF: 80% remaining
Plasma Stability; human plasma, at 1 h
  human Plasma stability: 100% remaining

## CC(C)OCCn1c(SCOC(=O)N(C)CCOCCN)nc(=O)c2[nH]ccc21.O=C(O)C(F)(F)F [Example 380, trifluoroacetic acid ({4-oxo-1-[2-(propan-2-yloxy)ethyl]-1H,4H,5H-pyrrolo[3,2-d]pyrimidin-2-yl}sulfanyl) methyl N-[2-(2-aminoethoxy)ethyl]-N-methylcarbamate]
[1]; [11]
  SGF: 100% remaining
[2]; [12]
  SIF: 99% remaining
Plasma Stability; human plasma, remaining at 1 h
  human Plasma stability: 85% remaining

## CC(C)OCCn1c(=S)[nH]c(=O)c2c1ccn2COC(=O)N(C)c1ccccc1Cl [Example 250]
[1]; [9]
  SGF: 99% remaining
[2]; [10]
  SIF: 93% remaining
Plasma Stability; human plasma, at 1 h
  human Plasma stability: 100% remaining

## CC(C)OCCn1c(=S)n(COC(=O)CCCCOC(=O)[C@@H](N)C(C)C)c(=O)c2c1ccn2COC(=O)CCCCOC(=O)[C@@H](N)C(C)C.O=C(O)C(F)(F)F.O=C(O)C(F)(F)F [Example 337, bis(trifluoroacetic acid) (3-{[(5-{[(2S)-2-amino-3-methylbutanoyl]oxy}pentanoyl)oxy]methyl}-4-oxo-1-[2-(propan-2-yloxy)ethyl]-2-sulfanylidene-1H,2H,3H,4H,5H-pyrrolo[3,2-d]pyrimidin-5-yl)methyl 5-{[(2S)-2-amino-3-methylbutanoyl]oxy}pentanoate]
[1]; [8]
  SGF: 98
[2]; [8]
  SIF: 30
Plasma Stability; % remaining @ 1 h
  human Plasma stability: 60% remaining

## CCS(=O)(=O)n1ccc2c1c(=O)[nH]c(=S)n2CCOC(C)C [Example 77, 5-(ethanesulfonyl)-1-[2-(propan-2-yloxy)ethyl]-2-sulfanylidene-1H,2H,3H,4H,5H-pyrrolo[3,2-d]pyrimidin-4-one]
[1]; [3]
  SGF: 99%
[2]; [4]
  SIF: 96%
Plasma Stability; [5]
  human Plasma stability: 98%

## CCCNC(=O)OCSc1nc(=O)c2c(ccn2C(=O)NCCC)n1CCOC(C)C [Example 184]
[1]; % remaining at 1 h in simulated gastric fluid, the 15th table
  SGF: 99% @ 1 h
[2]; % remaining at 1 h in simulated intestinal fluid, the 15th table
  SIF: 86% @ 1 h
Plasma Stability; [7]
  human Plasma stability: 95% @ 1 h

## CC(C)OCCn1c(SCOC(=O)N(C)CCOCCN)nc(=O)c2c1ccn2COC(=O)N(C)CCOCCN.O=C(O)C(F)(F)F.O=C(O)C(F)(F)F [Example 382, bis(trifluoroacetic acid) (2-{[({[2-(2-aminoethoxy)ethyl](methyl)carba-moyl}oxy)methyl]sulfanyl}-4-oxo-1-[2-(propan-2-yloxy)ethyl]-1H,4H,5H-pyrrolo[3,2-d]pyrimidin-5-yl)methyl N-[2-(2-aminoethoxy)ethyl]-N-methylcarbamate]
[1]; [11]
  SGF: 100% remaining
[2]; [12]
  SIF: 99% remaining
Plasma Stability; human plasma, remaining at 1 h
  human Plasma stability: 98% remaining

## CC(C)OCCn1c(=S)n2c(=O)c3c1ccn3COC(=O)CCCCCCC(=O)OC2 [Example 134, 16-[2-(Propan-2-yloxy)ethyl]-15-sulfanylidene-3,12-dioxa-1,14,16-triazatricyclo[12.5.2.0^{17,20}]henicosa-17(20),18-diene-4,11,21-trione]
[1]; [3]
  SGF: 99%
[2]; [4]
  SIF: 1%
Plasma Stability; [5]
  human Plasma stability: 1%

## CC(C)OCCn1c2nc(=O)c3c1ccn3COC(=O)CCCCCCC(=O)OCS2 [Example 135, 22-[2-(Propan-2-yloxy)ethyl]-6,15-dioxa-17-thia-4,19,22-triazatricyclo[16.3.1.0^{4,21}]docosa-1(21),2,18-triene-7,14,20-trione]
[1]; [3]
  SGF: 86%
[2]; [4]
  SIF: 67%
Plasma Stability; [5]
  human Plasma stability: 67%

## CC(C)OCCn1c(=S)[nH]c(=O)c2c1ccn2COC(=O)CCCCOC(=O)CNC(=O)OC(C)(C)C [Example 328, {4-oxo-1-[2-(propan-2-yloxy)ethyl]-2-sulfanylidene-1H,2H,3H,4H,5H-pyrrolo[3,2-d]pyrimidin-5-yl}methyl 5-[(2-{[(tert-butoxy)carbonyl]amino}acetyl)oxy] pentanoate]
[1]; % remaining @ 1 h
  SGF: 97%@ 1 h
[2]; % remaining @ 1 h
  SIF: 6%@ 1 h
Plasma Stability; % remaining @ 1 h
  human Plasma stability: 11%@ 1 h

## CC(C)OCCn1c(=S)[nH]c(=O)c2c1ccn2COC(=O)OCCOCCN.O=C(O)C(F)(F)F [Example 354, trifluoroacetic acid 2-(2-aminoethoxy)ethyl {4-oxo-1-[2-(propan-2-yloxy)ethyl]-2-sulfanylidene-1H,2H,3H,4H,5H-pyrrolo[3,2-d]pyrimidin-5-yl}methyl carbonate]
[1]; [11]
  SGF: 99% remaining
[2]; [12]
  SIF: 3% remaining
Plasma Stability; human plasma, remaining at 1 h
  human Plasma stability: 1% remaining

## Cc1ccccc1N(C)C(=O)OCn1ccc2c1c(=O)[nH]c(=S)n2CCOC(C)C [Example 251]
[1]; [9]
  SGF: 99% remaining
[2]; [10]
  SIF: 100% remaining
Plasma Stability; human plasma, at 1 h
  human Plasma stability: 96% remaining
